How the values were obtained:
[1] = test system: linear full thickness incisions on the dorsal skin; assay: Rat full thickness incisional wound healing and scarring model, intradermal injection to the wound margins; type: in vivo, Sprague Dawley rats; conditions: for effect on wound healing (histological analysis): 10, 20, 40 mM at wounding and daily for following seven days, compared with PBS controls; for immunocytochemical analysis (fibronectin staining, monocyte/macrophage profiles): vs PBS controls; for histological analysis: 40 days post wounding; for scarring / dermal architecture (histology): 80 days post wounding
Method: Adult male Sprague Dawley rats (200-250 g) were anaesthetised using equal parts halothane, nitrous oxide and oxygen. Four linear full thickness incisions, 1 cm in length to the depth of the panniculus carnosus were made on the dorsal skin, 1 cm from the midline and 5 and 8 cm from the base of the skull. The wounds were left unsutured to heal by secondary intention. Experimental treatments were administered by intradermal injection to the wound margins (50 μl down each wound margin). At selected time points animals were killed by chloroform overdose. Wounds were excised from the surrounding tissue and bisected. Half the wounds were rapidly frozen in OCT for cryosection and immunoctyochemistry and half fixed in formaldehyde for wax embedding and histology. Wax sections were routinely stained with haematoxylin and eosin, picrosirius red and Massons Lille trichrome, to display collagen fibre thickness, density and orientation to enable assessment of scar quality. […] A range of doses (10 mM, 20 mM and 40 mM) was studied for each sugar, with PBS (phosphate buffered saline) as a control. Treatments were administered at the time of wounding and each day for the following seven days. Two animals per dose were studied at each of the three time points (7, 40 and 80 days post wounding) for each compound. […]. […] Treatments were administered at the time of wounding and each day for the following two days. One animal per dose was studied at each of the two time points (7 and 80 days post wounding). Total n=4. […] Department of Pharmacy, University of Manchester. A single concentration (20 mM) of this compound was studied, with PBS as a control. The time of administration varied to the previous experiments. Animals were split into three groups and treated on day 0 alone, days 0, 2 and 4, or days 0 to 7 inclusive. Two animals per treatment regime were studied at each of the three time points (3, 7 and 80 days) Total n=18.

wounds = assay: Experimental work treating wounds with other sugars; type: in vivo; conditions: for effect on wound healing: compared with controls; for effect on scarring: in vivo
Source text: Galactose-6-phosphate and glycerol-3-phosphate have no effect upon either wound healing or scarring.

[2] = target: M6P/IGF II (insulin-like growth factor II) receptor (Homo sapiens, UniProt P11717); assay: ELISA-type assay using purified M6P/IGF II receptor; type: binding; conditions: initial results; compared with M6P
Sequence of M6P/IGF II (insulin-like growth factor II) receptor (P11717 41-2491): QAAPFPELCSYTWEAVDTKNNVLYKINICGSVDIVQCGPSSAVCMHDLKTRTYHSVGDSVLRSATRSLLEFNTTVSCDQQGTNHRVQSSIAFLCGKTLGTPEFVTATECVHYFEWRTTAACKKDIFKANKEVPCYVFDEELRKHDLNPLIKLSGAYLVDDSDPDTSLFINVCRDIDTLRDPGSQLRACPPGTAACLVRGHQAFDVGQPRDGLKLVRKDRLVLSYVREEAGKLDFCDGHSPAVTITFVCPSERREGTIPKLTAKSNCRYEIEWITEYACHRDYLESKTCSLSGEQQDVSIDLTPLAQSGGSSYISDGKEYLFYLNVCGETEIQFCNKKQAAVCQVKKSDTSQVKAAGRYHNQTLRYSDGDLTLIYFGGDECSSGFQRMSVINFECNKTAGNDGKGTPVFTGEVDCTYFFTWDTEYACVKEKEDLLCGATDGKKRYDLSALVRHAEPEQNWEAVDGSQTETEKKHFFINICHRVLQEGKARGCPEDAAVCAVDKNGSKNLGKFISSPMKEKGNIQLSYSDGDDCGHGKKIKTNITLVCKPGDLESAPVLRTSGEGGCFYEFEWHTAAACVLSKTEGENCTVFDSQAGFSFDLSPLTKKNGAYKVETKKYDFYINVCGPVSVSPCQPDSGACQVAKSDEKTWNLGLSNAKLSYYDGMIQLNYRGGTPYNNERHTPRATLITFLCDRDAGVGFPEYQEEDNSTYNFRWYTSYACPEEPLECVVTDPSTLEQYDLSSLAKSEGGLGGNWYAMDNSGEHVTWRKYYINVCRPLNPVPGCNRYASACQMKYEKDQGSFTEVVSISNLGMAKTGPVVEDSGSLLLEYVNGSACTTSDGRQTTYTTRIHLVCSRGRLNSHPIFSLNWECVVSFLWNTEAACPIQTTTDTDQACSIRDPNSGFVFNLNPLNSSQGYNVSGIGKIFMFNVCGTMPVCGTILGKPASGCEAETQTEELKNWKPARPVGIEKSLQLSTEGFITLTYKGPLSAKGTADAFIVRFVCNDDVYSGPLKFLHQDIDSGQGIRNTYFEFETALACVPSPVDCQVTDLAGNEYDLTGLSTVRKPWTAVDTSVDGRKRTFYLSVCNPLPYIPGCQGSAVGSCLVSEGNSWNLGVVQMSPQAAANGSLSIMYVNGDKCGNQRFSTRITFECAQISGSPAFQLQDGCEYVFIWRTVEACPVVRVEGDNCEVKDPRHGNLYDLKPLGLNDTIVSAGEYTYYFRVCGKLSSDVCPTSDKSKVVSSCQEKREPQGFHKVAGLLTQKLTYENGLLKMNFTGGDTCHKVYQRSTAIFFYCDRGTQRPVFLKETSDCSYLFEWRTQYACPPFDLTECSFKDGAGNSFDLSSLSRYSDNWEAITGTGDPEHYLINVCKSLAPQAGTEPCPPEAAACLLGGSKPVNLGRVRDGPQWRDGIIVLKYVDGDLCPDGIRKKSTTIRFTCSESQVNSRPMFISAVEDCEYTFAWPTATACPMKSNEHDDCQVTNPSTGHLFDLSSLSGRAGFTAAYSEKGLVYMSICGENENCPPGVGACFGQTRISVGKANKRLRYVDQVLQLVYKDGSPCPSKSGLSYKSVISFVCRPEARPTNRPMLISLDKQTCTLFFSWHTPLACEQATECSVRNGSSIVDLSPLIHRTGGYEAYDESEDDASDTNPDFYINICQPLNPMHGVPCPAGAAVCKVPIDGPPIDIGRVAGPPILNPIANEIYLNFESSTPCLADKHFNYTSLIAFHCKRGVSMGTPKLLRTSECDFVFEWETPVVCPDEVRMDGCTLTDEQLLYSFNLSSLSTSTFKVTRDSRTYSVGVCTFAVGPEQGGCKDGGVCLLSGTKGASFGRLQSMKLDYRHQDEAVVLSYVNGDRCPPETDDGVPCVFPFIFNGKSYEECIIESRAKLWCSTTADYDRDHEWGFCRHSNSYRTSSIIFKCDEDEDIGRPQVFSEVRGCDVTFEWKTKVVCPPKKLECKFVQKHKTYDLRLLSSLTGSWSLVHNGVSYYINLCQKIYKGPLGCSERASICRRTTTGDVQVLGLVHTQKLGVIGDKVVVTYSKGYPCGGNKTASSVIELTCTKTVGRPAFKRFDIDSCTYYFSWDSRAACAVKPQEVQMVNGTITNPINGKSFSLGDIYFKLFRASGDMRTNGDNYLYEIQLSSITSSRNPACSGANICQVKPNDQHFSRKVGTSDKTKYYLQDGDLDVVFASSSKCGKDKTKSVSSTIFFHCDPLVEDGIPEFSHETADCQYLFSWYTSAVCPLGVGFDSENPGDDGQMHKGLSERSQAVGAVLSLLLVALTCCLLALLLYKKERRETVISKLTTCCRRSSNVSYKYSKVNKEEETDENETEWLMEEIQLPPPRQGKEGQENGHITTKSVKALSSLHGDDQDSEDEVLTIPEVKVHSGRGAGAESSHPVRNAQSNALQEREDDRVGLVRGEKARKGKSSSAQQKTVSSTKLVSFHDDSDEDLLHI
Source text: In addition to the animal studies an ELISA-type assay using purified M6P/IGF II (insulin-like growth factor II) receptor was developed to determine if these analogues of M6P bind to the M6P/IGF II receptor.

[3] = 7 days post wounding, 10, 20, 40 mM
[4] = 10, 20, 40 mM, F1P effect particularly at 40 mM

O=C(COP(=O)(O)O)[C@@H](O)[C@H](O)[C@H](O)CO [F1P, fructose-1-phosphate]
effect on wound healing (histological analysis) ([1]; 7 days post wounding): neither F1P or Malt1P had any effect on wound healing
immunocytochemical analysis (fibronectin staining, monocyte/macrophage profiles) [1, 3]: treated wounds resembled controls
histological analysis ([1]; 10, 20, 40 mM): inconsistent, with no clear trend
scarring / dermal architecture (histology) [1, 4]: reduce scarring more significantly

O=C[C@H](O)[C@@H](O)[C@@H](O)[C@H](O)COP(=O)(O)O [Galactose-6-phosphate]
effect on wound healing (wounds): no effect
effect on scarring (wounds): no effect

O=C[C@@H](O)[C@@H](O)[C@H](O)[C@H](O)COP(=O)(O)O [M6P, mannose-6-phosphate]
histological analysis of treated wounds vs PBS controls ([1]; 7 days post wounding, 10 or 20 mM, or 10 mM + 10 mM M6P, at wounding and each day for following two days): none of the treated wounds appeared different to PBS controls
scarring / dermal architecture (histology) ([1]; 10 or 20 mM, or 10 mM + 10 mM M6P, at wounding and each day for following two days, vs controls): improvement in scarring

O=P(O)(O)O[C@H]1O[C@H](CO)[C@@H](O[C@H]2O[C@H](CO)[C@@H](O)[C@H](O)[C@H]2O)[C@H](O)[C@H]1O [Malt1P, maltose-1-phosphate]
effect on wound healing (histological analysis) ([1]; 7 days post wounding): neither F1P or Malt1P had any effect on wound healing
immunocytochemical analysis (fibronectin staining, monocyte/macrophage profiles) [1, 3]: treated wounds resembled controls
histological analysis ([1]; 10, 20, 40 mM): inconsistent, with no clear trend
scarring / dermal architecture (histology) [1, 4]: improve the dermal architecture very slightly
binding to the M6P/IGF II receptor [2]: does not bind

O=P(O)(O)OCC(O)CO (stereo not drawn) [glycerol-3-phosphate]
effect on wound healing (wounds): no effect
effect on scarring (wounds): no effect
